Among the data in ChEMBL document CHEMBL5537110, “SIRT1-dependent mitochondrial biogenesis supports therapeutic effects of 4-butyl-polyhydroxybenzophenone compounds against NAFLD” (Eur J Med Chem, 2023) are inhibition, Activity and Kd values, retold here.

Test [1] relates to HepG2. The experiment in a line: Inhibition of liver injury in 40% FBS-induced steatosis human HepG2 cells model assessed as decrease in ALT level at 0.2 to 5 uM incubated in steatosis inducing DMEM with 40% FBS medium for 24 hrs followed by compound treatment. Type of test: functional, cell-based. Conditions: dose 0.2-5 µM.
Test [2] concerns HepG2. The experiment in a line: Induction of mitochondrial biogenesis in human HepG2 cells assessed as mitochondrial ND6 protein expression incubated for 24 hrs in presence of SIRT1 inhibitor, EX527 by western blot analysis. The class given is functional, cell-based. On the technique in general: Immunoblotting shows a protein as a band on a membrane.
Test [3] has as its target T1, Peroxisome proliferator-activated receptor gamma coactivator 1-alpha (Homo sapiens) (UniProt Q9UBK2).
T1 sequence (whole entry): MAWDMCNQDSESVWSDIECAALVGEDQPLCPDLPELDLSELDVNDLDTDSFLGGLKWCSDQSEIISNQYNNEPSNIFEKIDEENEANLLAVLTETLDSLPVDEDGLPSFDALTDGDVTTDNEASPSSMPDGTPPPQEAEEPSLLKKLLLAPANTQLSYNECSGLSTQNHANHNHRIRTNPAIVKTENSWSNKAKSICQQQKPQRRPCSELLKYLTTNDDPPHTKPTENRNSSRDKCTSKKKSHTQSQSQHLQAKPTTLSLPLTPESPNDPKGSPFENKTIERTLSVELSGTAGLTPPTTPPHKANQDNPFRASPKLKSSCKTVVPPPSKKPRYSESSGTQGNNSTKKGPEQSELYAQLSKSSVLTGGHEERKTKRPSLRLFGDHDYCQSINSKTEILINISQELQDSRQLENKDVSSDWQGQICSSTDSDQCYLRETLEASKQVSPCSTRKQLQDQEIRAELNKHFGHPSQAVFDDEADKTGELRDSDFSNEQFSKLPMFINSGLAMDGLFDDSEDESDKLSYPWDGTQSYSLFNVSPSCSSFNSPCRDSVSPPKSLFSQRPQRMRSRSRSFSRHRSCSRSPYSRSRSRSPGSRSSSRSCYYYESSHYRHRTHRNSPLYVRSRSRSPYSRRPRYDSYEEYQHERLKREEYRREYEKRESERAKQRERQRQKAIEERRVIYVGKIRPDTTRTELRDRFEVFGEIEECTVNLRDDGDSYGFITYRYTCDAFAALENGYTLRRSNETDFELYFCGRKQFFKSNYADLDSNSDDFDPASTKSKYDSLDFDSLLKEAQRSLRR
Briefly: Binding affinity to PGC1alpha in human HepG2 cells assessed as increase in protein abundance at 80 to 320 uM pretreated with compound for 30 mins followed by proteolysis for 15 mins by DARTS assay. The class given is cell-based. Conditions: filed as activator, dose 80-320 µM, time 45.0 min.

Test [4] concerns HepG2. The experiment in a line: Recovery of mitochondrial biogenesis in 40% FBS-induced steatosis human HepG2 cells model assessed as increase in NRF1 mRNA expression incubated for 24 hrs by qRT-PCR analysis. The conditions noted are these: dose 0.2-5 µM. Type of test: functional, cell-based. (Quantitative PCR measures a nucleic acid by following its amplification.)
Test [5] concerns HepG2. Briefly: Induction of mitochondrial biogenesis in human HepG2 cells assessed as NRF1 protein expression incubated for 24 hrs in presence of SIRT1 inhibitor, EX527 by western blot analysis. Type of test: functional, cell-based.
The subject of test [6] is HepG2. The experiment in a line: Inhibition of liver injury in 40% FBS-induced steatosis human HepG2 cells model assessed as increase in liver protection index by measuring increase in GSH level at 0.2 to 5 uM incubated with compound for 24 hrs followed by replacement with steatosis inducing DMEM with 40% FBS medium. Type of test: functional, cell-based. Conditions: dose 0.2-5 µM.

Test [7] has as its system HepG2. Briefly: Recovery of energy production in 40% FBS-induced steatosis human HepG2 cells model assessed as upregulation of mitochondrial ATP production incubated in steatosis inducing DMEM with 40% FBS medium for 24 hrs followed by compound treatment by luciferase based assay. Type of test: functional, cell-based. The conditions noted are these: Mitochondria, dose 0.2-5 µM.

The test system of test [8] is HepG2. Briefly: Inhibition of lipid toxicity in 40% FBS-induced steatosis human HepG2 cells model assessed as decrease in lipid accumulation at 0.2 to 5 uM incubated with compound for 24 hrs followed by replacement with steatosis inducing DMEM with 40% FBS medium by Oil red O staining based analysis. The class given is functional, cell-based. The conditions noted are these: dose 0.2-5 µM.

Test [9] concerns HepG2. The experiment in a line: Induction of mitochondrial biogenesis in human HepG2 cells assessed as PGC1alpha protein expression incubated for 24 hrs in presence of SIRT1 inhibitor, EX527 by western blot analysis. Type of test: functional, cell-based.
For another test, the system named is EA.hy 926. The experiment in a line: Cytoprotective activity against H2O2-induced toxicity in human EA.hy 926 cells assessed as protective rate at 10 uM pretreated with compound for 4 hrs followed by incubation with H2O2 for 2 hrs by absorbance based analysis. Conditions: time 6 hrs. Type of test: functional.
Test [10] deals with T2, Peroxisome proliferator-activated receptor gamma coactivator 1-alpha (Homo sapiens, UniProt Q9UBK2).
T2 sequence (Q9UBK2 whole entry): T1 sequence (whole entry)
Briefly: (§1) Binding affinity to PGC1alpha (unknown origin) by surface plasmon resonance assay.

Test [11] deals with T1, Peroxisome proliferator-activated receptor gamma coactivator 1-alpha (Homo sapiens). Described as §1. The conditions noted are these: filed as activator.
Test [12] relates to HepG2. The experiment in a line: Inhibition of liver injury in 40% FBS-induced steatosis human HepG2 cells model assessed as decrease in ALT level at 0.2 to 5 uM incubated with compound for 24 hrs followed by replacement with steatosis inducing DMEM with 40% FBS medium. The class given is functional, cell-based. Conditions: dose 0.2-5 µM.
The subject of test [13] is Rattus norvegicus. The experiment in a line: Hepatoprotective activity against high fat diet-fed NAFLD Sprague-Dawley rat model assessed as decrease in serum gamma-GT level administered intragastrically via gavage for 4 weeks. Conditions: dose 12.3-61.4 mg/kg, route ig. The class given is functional, organism-based.
The test system of test [14] is Rattus norvegicus. Briefly: Hepatoprotective activity against high fat diet-fed NAFLD Sprague-Dawley rat model assessed as decrease in serum AST level at 12.3 to 61.4 mg/kg, IG administered via gavage for 4 weeks. Type of test: functional, organism-based. Conditions: dose 12.3-61.4 mg/kg.
The test system of test [15] is HepG2. The experiment in a line: Inhibition of liver injury in human HepG2 cells assessed as increase in liver protection index by measuring increase in ratio of GSH to GSSG at 0.2 to 5 uM incubated with compound for 24 hrs followed by replacement with steatosis inducing DMEM with 40% FBS medium. Type of test: functional, cell-based. Conditions: dose 0.2-5 µM.
Test [16] concerns HepG2. The experiment in a line: Inhibition of oxidative stress in 40% FBS-induced steatosis human HepG2 cells model assessed as reduction in mitochondrial ROS production incubated with compound for 24 hrs followed by replacement with steatosis inducing DMEM with 40% FBS medium by MitoSOX Red dye based fluorescence microscopy. Conditions: Mitochondria, dose 0.2-5 µM. Type of test: functional, cell-based.

For test [17], the system named is HepG2. Briefly: Inhibition of liver injury in 40% FBS-induced steatosis human HepG2 cells model assessed as increase in liver protection index by measuring increase in GSH level at 0.2 to 5 uM incubated in steatosis inducing DMEM with 40% FBS medium for 24 hrs followed by compound treatment. Type of test: functional, cell-based. The conditions noted are these: dose 0.2-5 µM.

The test system of test [18] is HepG2. Briefly: Induction of mitochondrial biogenesis in human HepG2 cells assessed as PGC1alpha mRNA expression incubated for 24 hrs in presence of SIRT1 inhibitor, EX527 by qRT-PCR analysis. Type of test: functional, cell-based.
Test [19] concerns HepG2. The experiment in a line: Recovery of mitochondrial biogenesis in 40% FBS-induced steatosis human HepG2 cells model assessed as increase in NRF1 protein expression incubated for 24 hrs by western blot analysis. The class given is functional, cell-based. The conditions noted are these: dose 0.2-5 µM.
Test [20] has as its system HepG2. The experiment in a line: Inhibition of liver injury in 40% FBS-induced steatosis human HepG2 cells model assessed as decrease in LDH level at 0.2 to 5 uM incubated with compound for 24 hrs followed by replacement with steatosis inducing DMEM with 40% FBS medium. The conditions noted are these: dose 0.2-5 µM. The class given is functional, cell-based.
For test [21], the system named is HepG2. The experiment in a line: Recovery of mitochondrial biogenesis in 40% FBS-induced steatosis human HepG2 cells model assessed as increase in mitochondrial COX1 mRNA expression incubated for 24 hrs by qRT-PCR analysis. The class given is functional, cell-based. Conditions: dose 0.2-5 µM.

SMILES strings stand for the structures. pKd: −log10 of the molar value. The source made the active and inactive calls. No cut-off for these calls is given here.

With `CC(C)(C)c1ccc(C(=O)c2ccc(O)c(O)c2)cc1`, the inhibition entry with HepG2 [1], in the test on HepG2 [6], in the test on HepG2 [8], in the test on HepG2 [12], with HepG2 [15] and in the test on HepG2 [17] was “Active” throughout. Besides, the inhibition entry in the test with HepG2 [20] is “Active”. Also, the result with HepG2 [2], in the test with HepG2 [5], in the test on HepG2 [9] and with HepG2 [18] was inactive. Also, the result (in test [3]; in the test on Rattus norvegicus [13]; with Rattus norvegicus [14]) was Active. The Activity entry with HepG2 [4] was “Dose-Dependent Effect”; with HepG2 [7], “Dose-Dependent Effect”; in the test on EA.hy 926, 87.46%; in [11] it was “Dose-Dependent Effect”; in the test with HepG2 [19], “Dose-Dependent Effect”; in the test on HepG2 [21], “Dose-Dependent Effect”. Also, the pKd (usually the Kd on a negative log10 scale, so that one unit is a factor of ten) in test [10] is 3.76. Moreover, the inhibition result with HepG2 [16] was “Dose-Dependent Effect”.
